{"source": "patent US11344534B2", "about": "“Cholinergic agonism for the treatment of pancreatic cancer” (priority 2017, dated 2022)", "key": {"[1]": {"test_system": "KPC mice", "assay": "KPC mice with established PDAC treated with gemcitabine with or without bethanechol", "assay_type": "in vivo, mouse", "details": "for overall survival (in words): KPC mice with established PDAC, bethanechol + GEM vs GEM alone", "from_the_text": "Next, the role of cholinergic signaling in advanced pancreatic cancer was investigated using the genetically engineered KPC (K-Ras^+/LSL-G12D;p53^+/R172H;Pdx-1-Cre) mouse model, which develops ductal adenocarcinoma by 17-19 weeks (Olive et al., 2009, Hingorani et al., 2005).\nK-Ras^+/LSL-G12D, p53^+/R172H, and Pdx-1-Cre mice were provided by Dr. Kenneth Olive (Columbia University). M1RKO mice were purchased from the Jackson Laboratory. KC mice and KPC mice were crossed with M1RKO mice. For several experiments, KC mice received pyloroplasty with or without vagotomy at 8 weeks and KC+VxPP mice were treated with or without bethanechol (400 μg/ml) after surgery immediately. They were sacrificed at 20 weeks. In addition, KPC mice were treated with gemcitabine biweekly and with or without bethanechol when the tumor size of 3-5 mm detected using ultrasound. They were sacrificed when the mice were moribund. For liver metastatic experiments, WT type C57/B6 mice received spleen injection and hemi-splenectomy. […] They were sacrificed when the mice were moribund.\nNext, the role of cholinergic signaling in established PDAC was investigated using the KPC mouse model, which develops PDAC at a median age of 17-19 weeks^2, 29. KPC mice with pancreatic tumors that measured 3-5 mm in diameter on ultrasound were randomized to treatment with gemcitabine (GEM) alone, or GEM+bethanechol (FIG. 8I).\n(§1) LSL-Kras^+/LSL-G12D, LSL-Trp53^+/R172H, and Pdx1-Cre mice were bred by Dr. Kenneth P. Olive and co-workers. Chrm1KO mice (C57BL/6-Chrm1tm1 Stl/J, (M1RKO) mice^1 were purchased from the Jackson Laboratory. KC mice and KPC mice were crossed with M1RKO mice. In the vagotomy experiments, KC mice received pyloroplasty with or without vagotomy at 8 weeks, and some KC+VxPP mice were treated with bethanechol ([…] in drinking water) immediately after surgery and then sacrificed at 20 weeks. KPC mice in treatment studies were palpated weekly for tumors in the pancreas. Once a tumor was suspected, KPC mice were screened by VEVO 2100—Ultrasound Imaging System (FUJIFILM VisualSonics) for pancreatic cancer. KPC mice were treated with gemcitabine, given by i.p. injection 100 mg/kg biweekly, with or without bethanechol, when a tumor size of 3-5 mm was detected using ultrasound. Mice were sacrificed when the mice were moribund. NOD/SCID mice were implanted with Panc1 cells subcutaneously and sacrificed at 30 days after implantation. For liver metastatic experiments, WT type C57/B6 mice received a splenic injection of labeled Panc02 cells, followed by hemi-splenectomy. The mice were then divided into three groups. […] Mice were then sacrificed when moribund. At necropsy, hepatic metastases that could clearly be identified as tumor nodules on gross inspection were separated. All animal studies and procedures were approved by the IACUC committee at Columbia University. All mice were bred under specific pathogen free conditions. Comparisons were made with age- and sex-matched control animals.\nCD44, p-EGFR, p-PI3K, p-ERK, and Ki67 positive cells were quantified in at least five high power fields from at least 3 mice per group. Total cells per field were counted via morphometric analysis using ImageJ and the ratio of positive cells to total cell number calculated."}, "[2]": {"details": "cited from earlier work"}, "[3]": {"test_system": "Panc1 cells", "assay": "Soft agar assay, human cells", "assay_type": "cell-based", "details": "human cancer cells (Panc1)"}, "[4]": {"test_system": "Panc1 cells", "assay": "Subcutaneous implantation of 25,000 pilocarpine-pretreated Panc1 cells into NOD/SCID mice", "assay_type": "in vivo, mouse", "details": "25,000 Panc1 cells pretreated with pilocarpine for 72 hours vs untreated Panc1 cells", "procedure": "To address the possible parasympathetic effects on sternness, human pancreatic cancer cells (Panc1 and BxPC3) were treated with pilocarpine.\nTo address the possible parasympathetic effects on stemness, human pancreatic cancer cells (Panc1 and BxPC3) were treated with pilocarpine.\nas §1"}, "[5]": {"test_system": "Panc1 cells", "assay": "RNAseq of Panc1 cells after pilocarpine treatment", "assay_type": "cell-based, human", "procedure": "Panc1 cells were lysed in RNA lysis buffer supplied in […] PicoPure RNA isolation kit (Life Technologies)(n=4). Total RNA was isolated in accordance with the manufacturer's protocol. cDNA was amplified and libraries were constructed by using SMARTer Ultra Low Input RNA Kit (Clontech Laboratories) and Nextera XT DNA Library Preparation Kit (Illumina) according to the respective manufacturer's instructions. Sequencing was performed with Hiseq 2500 (Illumina) (30 M 100 bp single end reads per sample). Sequenced reads were mapped to the NCBI annotated genes of the […] with BowTie2 and TopHat 2.0.4^5, 6. Reads were counted with HTSeq. Expression datasets were deposited in the Gene Expression Omnibus (GEO)^7 (GSE102880 code: armlggayprundsh). Samples were normalized with the TMM algorithm. The statistical significance of differential expression was estimated with weighted Limma-Voom^8, 9 which runs under Bioconductor/R^10-12. […] First, a screen in terms of Gene Ontology^14 categories for consistency with phenotype was performed. Genes were retained which either: 57 genes fulfilled these requirements, these genes were analyzed further in terms of KEGG pathways^15 with iPathwayGuide^16, 17"}, "[6]": {"test_system": "Kras mutant Panc1 cells", "assay": "Ca2+ flux in pancreatic cancer cells", "assay_type": "cell-based, human", "details": "preliminary studies"}, "[7]": {"details": "Panc1 cells, pilocarpine, preliminary analysis"}, "[8]": {"details": "Panc-1 cells treated with pilocarpine"}}, "note": "“Also recorded” adds a separate entry of the source. Read-outs that look alike come from different tables or passages of the source.", "data": [{"smiles": "CC(C[N+](C)(C)C)OC(N)=O", "note": "(stereo not drawn) [bethanechol, 2-[(aminocarbonyl)oxy]-N,N,N-trimethyl-1-propanaminium]", "values": [{"measurement": "overall survival (in words)", "setting": "[1]", "value": "extended significantly; also recorded: significantly extended"}, {"measurement": "overall survival (in words)", "setting": "[1]; listed as Bethanechol", "value": "significantly extended; also recorded: prolongs"}, {"measurement": "expression of p-EGFR, p-PI3K and p-ERK1/2 (immunohistochemical staining)", "setting": "[1]; pancreata of KPC mice treated with bethanechol", "value": "suppressed; also recorded: significantly downregulated"}, {"measurement": "toxicity in treatment of xerostomia", "setting": "[2]; cancer patients, 25 mg twice daily for several months", "value": "without any severe (Grade 3) toxicity"}, {"measurement": "side effects in treatment of xerostomia", "setting": "[2]; cancer patients, up to 50 mg three times daily and 25 mg 3 times a day", "value": "did not identify any clinically significant side effects"}, {"measurement": "duration of action", "setting": "[2]; human, in vivo", "value": 6, "unit": "h"}, {"measurement": "interactions with gemcitabine or nab-paclitaxel", "setting": "[2]; human, in vivo", "value": "no reported interactions"}, {"measurement": "toxicity in treatment of xerostomia", "setting": "[2]; oncology, doses up to 50 mg three times daily", "value": "without grade 3 toxicity or need for discontinuation"}, {"measurement": "toxicity of single doses", "setting": "[2]; single doses up to 200 mg", "value": "only mild cholinergic toxicity"}]}, {"smiles": "CC[C@@H]1C(=O)OC[C@@H]1Cc1cncn1C", "note": "[pilocarpine, (3S,4R)-3-ethyl-4-[(3-methylimidazol-4-yl)methyl]oxolan-2-one]", "values": [{"measurement": "colonies / sphere formation in soft agar", "setting": "[3]", "value": "significantly fewer"}, {"measurement": "tumor incidence / tumor initiation in NOD/SCID mice", "setting": "[4]", "value": "significant reduction; also recorded: inhibited"}, {"measurement": "tumor volume / size in NOD/SCID mice", "setting": "[4]", "value": "significant reduction"}, {"measurement": "tumor incidence / tumor initiation in NOD/SCID mice", "setting": "[4]; listed as Pilocarpine", "value": "fewer"}, {"measurement": "tumor volume / size in NOD/SCID mice", "setting": "[4]; listed as Pilocarpine", "value": "smaller"}, {"measurement": "expression of growth related genes EGFR and PI3K (RNAseq)", "setting": "[5]; Panc1 cells, pilocarpine 1 mM, 72 hrs", "value": "suppressed"}, {"measurement": "expression of PIK3CA(PI3K), EGFR, KDR(RTK), ITGAV(ITGA), NTRKB(TRKB) and BRAF(RafB) (RNAseq, KEGG pathways)", "setting": "[5]; Panc1 cells, pilocarpine treated vs untreated", "value": "downregulated"}, {"measurement": "expression of BDNF and NGF", "setting": "[5]; [7]", "value": "moderately decreased"}, {"measurement": "expression of TRK-B receptor (NTRK2)", "setting": "[5]; [7]", "value": "one of the most downregulated genes"}, {"measurement": "expression of BRAF, EGFR, PIK3CA, ITGAV, KDR, and FOXO3 (RNAseq)", "setting": "[5]; [8]", "value": "downregulation"}, {"measurement": "expression of STK11 and FOX06 (RNAseq)", "setting": "[5]; [8]", "value": "upregulation"}, {"measurement": "Ca2+ flux", "setting": "[6]", "value": "unable to stimulate"}]}]}
